Measured values published in patent US11420935B2, “Bicyclic compounds” (Vivace Therapeutics, Inc., priority 2019, dated 2022).
Like-named read-outs stand apart in the source and are kept apart here.

Tested on: 8×TBD luciferase reporter (YAP) in HEK293T cells
Test: YAP Reporter Assay (8×TBD firefly luciferase reporter)
Format: cell-based
Conditions: Homo sapiens, HEK-293T
Procedure, shortened: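 Stably transfected HEK293T cells (8×TBD firefly luciferase plus TK-renilla) were dosed with 10-point 1:3 dilutions from 3 μM final, quadruplicates, for 24 h at 37 °C. Dual-Glo read firefly and renilla luminescence; IC50 and maximal inhibition reported separately for each.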

[1] = HEK293T cells stably transfected with 8×TBD luciferase reporter and pRLTK, 24-hr incubation, firefly luciferase activity, read-out: Firefly Luciferase IC50
[2] = 24 h, read-out: Firefly Luciferase IC50 (μM)

In the case of `COC[C@@H](C)NC(=O)c1ccc2c(Oc3ccc(C(F)(F)F)cc3)cccc2c1` [Compound 26, (R)—N-(1-methoxypropan-2-yl)-5-(4-(trifluoromethyl)phenoxy)-2-naphthamide], the IC50 [1] is reported as under 0.1 µM.

Compound `C[C@H](NC(=O)c1ccc2c(Oc3ccc(C(F)(F)F)cc3)cccc2c1)c1nn[nH]n1` [Compound 52, (S)—N-(1-(2H-tetrazol-5-yl)ethyl)-5-(4-(trifluoromethyl)phenoxy)-2-naphthamide] has an IC50 [1] of 1 to 3 µM.

For `CC(C)N1CCC([C@@H](C)NC(=O)c2ccc3c(Oc4ccc(C(F)(F)F)cc4)cccc3c2)CC1` [Compound 156, (R)-N-(1-(1-isopropylpiperidin-4-yl)ethyl)-5-(4-(trifluoromethyl)phenoxy)-2-naphthamide], the IC50 [1] was 0.1 to 1 µM.

Compound `C[C@@H](NC(=O)c1ccc2c(Oc3ccc(C(F)(F)F)cc3)cccc2c1)c1cnccn1` [Compound 46, (R)—N-(1-(pyrazin-2-yl)ethyl)-5-(4-(trifluoromethyl)phenoxy)-2-naphthamide] has an IC50 [1] of under 0.1 µM.

In the case of `CN(C#N)CCCNC(=O)c1ccc2c(Oc3ccc(C(F)(F)F)cc3)cccc2c1` [Compound 35, N-(3-(N-methylcyanamido)propyl)-5-(4-(trifluoromethyl)phenoxy)-2-naphthamide], the IC50 [1] is reported as under 0.1 µM.

Work on `C[C@H](NC(=O)c1ccc2c(Oc3ccc(C(F)(F)F)cc3)cccc2c1)C1(F)CNC1` [Compound 151, (S)-N-(1-(3-fluoroazetidin-3-yl)ethyl)-5-(4-(trifluoromethyl)phenoxy)-2-naphthamide] yielded an IC50 [1] of 1 to 3 µM.

With `O=C(NC(CO)c1ccccn1)c1ccc2c(Oc3ccc(C(F)(F)F)cc3)cccc2c1` (stereo not drawn) [Compound 25, N-(2-hydroxy-1-(pyridin-2-yl)ethyl)-5-(4-(trifluoromethyl)phenoxy)-2-naphthamide] the IC50 [1] was under 0.1 µM.

Work on `C[C@H](NC(=O)c1ccc2c(Oc3ccc(C(F)(F)F)cc3)cccc2c1)C1CN(C2CC2)C1` [Compound 136, (S)—N-(1-(1-cyclopropylazetidin-3-yl)ethyl)-5-(4-(trifluoromethyl)phenoxy)-2-naphthamide] yielded an IC50 [1] of 1 to 3 µM.

`C[C@H](NC(=O)c1ccc2c(Oc3ccc(C(F)(F)F)cc3)cccc2c1)C1CN(CCO)C1` [Compound 128, (S)—N-(1-(1-(2-hydroxyethyl)azetidin-3-yl)ethyl)-5-(4-(trifluoromethyl)phenoxy)-2-naphthamide] was tested, and the IC50 [2] was 0.1 to 1 µM.

`C[C@@H](NC(=O)c1ccc2c(Oc3ccc(C(F)(F)F)cc3)cccc2c1)C1CC1` [Compound 38, (R)—N-(1-cyclopropylethyl)-5-(4-(trifluoromethyl)phenoxy)-2-naphthamide] showed an IC50 [1] of under 0.1 µM.

In the case of `O=C(N[C@H](CO)c1ccccn1)c1ccc2c(Oc3ccc(C(F)(F)F)cc3)cccc2c1` [Compound 119, (S)—N-(2-hydroxy-1-(pyridin-2-yl)ethyl)-5-(4-(trifluoromethyl)phenoxy)-2-naphthamide], the IC50 [1] is reported as under 0.1 µM.

With `CC(C)NC(=O)c1ccc2c(Oc3ccc(F)c(F)c3)cccc2c1` [Compound 8, 5-(3,4-difluorophenoxy)-N-isopropyl-2-naphthamide] the IC50 [1] was under 0.1 µM.

Compound `CC(C)N1CC([C@@H](C)NC(=O)c2ccc3c(Oc4ccc(C(F)(F)F)cc4)cccc3c2)C1` [Compound 133, (R)—N-(1-(1-isopropylazetidin-3-yl)ethyl)-5-(4-(trifluoromethyl)phenoxy)-2-naphthamide] has an IC50 [1] of 1 to 3 µM.

`C#CCNC(=O)c1ccc2c(Oc3ccc(C(F)(F)F)cc3)cccc2c1` [Compound 20, N-(prop-2-yn-1-yl)-5-(4-(trifluoromethyl)phenoxy)-2-naphthamide] gave an IC50 [1] of under 0.1 µM.

In the case of `C[C@H](NC(=O)c1ccc2c(Oc3ccc(C(F)(F)F)cc3)cccc2c1)C1CCC1` [Compound 60, (S)—N-(1-cyclobutylethyl)-5-(4-(trifluoromethyl)phenoxy)-2-naphthamide], the IC50 [1] is reported as under 0.1 µM.

Compound `CC(C)NC(=O)c1ccc2c(Oc3cccc(Cl)c3)cccc2c1` [Compound 2, 5-(3-chlorophenoxy)-N-isopropyl-2-naphthamide] has an IC50 [2] of under 0.1 µM.

With `C[C@@H](NC(=O)c1ccc2c(Oc3ccc(C(F)(F)F)cc3)cccc2c1)C1CN(CCF)C1` [Compound 124, (R)—N-(1-(1-(2-fluoroethyl)azetidin-3-yl)ethyl)-5-(4-(trifluoromethyl)phenoxy)-2-naphthamide] the IC50 [1] was under 0.1 µM.

Work on `CC(C)NC(=O)c1cc2cccc(Oc3ccc(C(F)(F)F)cc3)c2s1` [Compound 32, N-isopropyl-7-(4-(trifluoromethyl)phenoxy)benzo[b]thiophene-2-carboxamide] yielded an IC50 [1] of under 0.1 µM.

`C[C@H](NC(=O)c1ccc2c(Oc3ccc(C(F)(F)F)cc3)cccc2c1)C1CC1` [Compound 39, (S)—N-(1-cyclopropylethyl)-5-(4-(trifluoromethyl)phenoxy)-2-naphthamide] was tested, and the IC50 [1] was under 0.1 µM.

`CNS(=O)(=O)c1ccc2c(Oc3ccc(Cl)c(Cl)c3)cccc2c1` [Compound 9, 5-(3,4-dichlorophenoxy)-N-methylnaphthalene-2-sulfonamide] showed an IC50 [1] of under 0.1 µM.

In the case of `C[C@@H](NC(=O)c1ccc2c(Oc3ccc(C(F)(F)F)cc3)cccc2c1)C1CCN(CCO)CC1` [Compound 153, (R)-N-(1-(1-(2-hydroxyethyl)piperidin-4-yl)ethyl)-5-(4-(trifluoromethyl)phenoxy)-2-naphthamide], the IC50 [1] is reported as 0.1 to 1 µM.

Compound `O=C(N[C@H](CO)C1CNC1)c1ccc2c(Oc3ccc(C(F)(F)F)cc3)cccc2c1` [Compound 142, (S)—N-(1-(azetidin-3-yl)-2-hydroxyethyl)-5-(4-(trifluoromethyl)phenoxy)-2-naphthamide] has an IC50 [1] of 0.1 to 1 µM.

`C[C@H](NC(=O)c1ccc2c(Oc3ccc(C(F)(F)F)cc3)cccc2c1)c1ccccn1` [Compound 29, (S)—N-(1-(pyridin-2-yl)ethyl)-5-(4-(trifluoromethyl)phenoxy)-2-naphthamide] showed an IC50 [1] of under 0.1 µM.

With `C[C@@H](NC(=O)c1ccc2c(Oc3ccc(C(F)(F)F)cc3)cccc2c1)C1CN(CCCCO)C1` [Compound 123, (R)—N-(1-(1-(4-hydroxybutyl)azetidin-3-yl)ethyl)-5-(4-(trifluoromethyl)phenoxy)-2-naphthamide] the IC50 [1] was 0.1 to 1 µM.

`C[C@H](CCN(C)C)NC(=O)c1ccc2c(Oc3ccc(C(F)(F)F)cc3)cccc2c1` [Compound 144, (R)-N-(4-(dimethylamino)butan-2-yl)-5-(4-(trifluoromethyl)phenoxy)-2-naphthamide] showed an IC50 [1] of under 0.1 µM.

Work on `C[C@H](NC(=O)c1ccc2c(Oc3ccc(C(F)(F)F)cc3)cccc2c1)c1nnnn1C` [Compound 55, (S)—N-(1-(1-methyl-1H-tetrazol-5-yl)ethyl)-5-(4-(trifluoromethyl)phenoxy)-2-naphthamide] yielded an IC50 [1] of 0.1 to 1 µM.

Compound `C[C@H](NC(=O)c1ccc2c(Oc3ccc(C(F)(F)F)cc3)cccc2c1)c1ccccc1Cl` [Compound 83, (S)—N-(1-(2-chlorophenyl)ethyl)-5-(4-(trifluoromethyl)phenoxy)-2-naphthamide] has an IC50 [1] of under 0.1 µM.

`C[C@@H](NC(=O)c1ccc2c(Oc3ccc(C(F)(F)F)cc3)cccc2c1)c1ccccn1` [Compound 27, N-[(1R)-1-(2-pyridyl)ethyl]-5-[4-(trifluoromethyl)phenoxy]naphthalene-2-carboxamide] gave an IC50 [1] of 0.1 to 1 µM.

Work on `C[C@@H](NC(=O)c1ccc2c(Oc3ccc(C(F)(F)F)cc3)cccc2c1)c1ncc[nH]1` [Compound 64, (R)—N-(1-(1H-imidazol-2-yl)ethyl)-5-(4-(trifluoromethyl)phenoxy)-2-naphthamide] yielded an IC50 [1] of under 0.1 µM.

For `C[C@@H](NC(=O)c1ccc2c(Oc3ccc(C(F)(F)F)cc3)cccc2c1)c1nccn1C` [Compound 68, (R)—N-(1-(1-methyl-1H-imidazol-2-yl)ethyl)-5-(4-(trifluoromethyl)phenoxy)-2-naphthamide], the IC50 [1] was 0.1 to 1 µM.

`CC#C[C@@H](C)NC(=O)c1ccc2c(Oc3ccc(C(F)(F)F)cc3)cccc2c1` [Compound 90, N-[(1R)-1-methylbut-2-ynyl]-5-[4-(trifluoromethyl)phenoxy]naphthalene-2-carboxamide] showed an IC50 [1] of under 0.1 µM.

For `O=C(N[C@@H](CCO)c1ccccn1)c1ccc2c(Oc3ccc(C(F)(F)F)cc3)cccc2c1` [Compound 110, (S)—N-(3-hydroxy-1-(pyridin-2-yl)propyl)-5-(4-(trifluoromethyl)phenoxy)-2-naphthamide], the IC50 [1] was under 0.1 µM.

For `C[C@H](NC(=O)c1cnc2c(Oc3ccc(C(F)(F)F)cc3)cccc2c1)c1cccc2nc[nH]c12` [Compound 104, (S)—N-(1-(1H-benzo[d]imidazol-7-yl)ethyl)-8-(4-(trifluoromethyl)phenoxy)quinoline-3-carboxamide], the IC50 [1] was under 0.1 µM.

With `CC(C)NC(=O)c1ccc2c(Oc3ccc(C(F)(F)F)cc3)nccc2c1` [Compound 11, N-isopropyl-1-[4-(trifluoromethyl)phenoxy]isoquinoline-6-carboxamide] the IC50 [1] was under 0.1 µM.

Work on `CC(C)NC(=O)c1ccc2c(Oc3ccc(C(F)(F)F)cc3Cl)cccc2c1` [Compound 85, 5-(2-chloro-4-(trifluoromethyl)phenoxy)-N-isopropyl-2-naphthamide] yielded an IC50 [1] of under 0.1 µM.

`CC(=O)N1CC([C@H](C)NC(=O)c2ccc3c(Oc4ccc(C(F)(F)F)cc4)cccc3c2)C1` [Compound 100, (S)—N-(1-(1-acetylazetidin-3-yl)ethyl)-5-(4-(trifluoromethyl)phenoxy)-2-naphthamide] was tested, and the IC50 [1] was 0.1 to 1 µM.

`O=C(NC1(c2ccccn2)CC1)c1ccc2c(Oc3ccc(C(F)(F)F)cc3)cccc2c1` [Compound 54, N-(1-(pyridin-2-yl)cyclopropyl)-5-(4-(trifluoromethyl)phenoxy)-2-naphthamide] showed an IC50 [1] of under 0.1 µM.

Compound `O=C(NC1(c2ccccc2)CC1)c1ccc2c(Oc3ccc(C(F)(F)F)cc3)cccc2c1` [Compound 36, N-(1-phenylcyclopropyl)-5-[4-(trifluoromethyl)phenoxy]naphthalene-2-carboxamide] has an IC50 [1] of under 0.1 µM.

`C[C@@H](NC(=O)c1ccc2c(Oc3ccc(C(F)(F)F)cc3)cccc2c1)c1cccc2cn[nH]c12` [Compound 87, N-[(1R)-1-(1H-indazol-7-yl)ethyl]-5-[4-(trifluoromethyl)phenoxy]naphthalene-2-carboxamide] gave an IC50 [1] of under 0.1 µM.
